One data set deals with H4 receptor (Homo sapiens, UniProt Q9H3N8). As to conditions: as described in U.S. Pat. No. 7,507,737, 8,343,989 and others; cited from earlier work.
Data set [1] in a line: Aqueous solubility at room temperature. The class given is physicochemical.
Data set [2] can be described thus: Hygroscopicity and physical (solid form) stability. Conditions: for conversion to another solid form: aqueous solution, atmosphere, dehydration or recrystallization; for physical stability: ambient conditions. The class given is physicochemical.

Entries after “also recorded” stand apart in the source; their conditions may differ.

We go through four compounds from patent US8859575B2, “Benzoimidazol-2-yl pyrimidine modulators of the histamine h4 receptor” (Janssen Pharmaceutica NV, priority 2013, dated 2014).

H4 receptor, sequence (Q9H3N8 whole entry): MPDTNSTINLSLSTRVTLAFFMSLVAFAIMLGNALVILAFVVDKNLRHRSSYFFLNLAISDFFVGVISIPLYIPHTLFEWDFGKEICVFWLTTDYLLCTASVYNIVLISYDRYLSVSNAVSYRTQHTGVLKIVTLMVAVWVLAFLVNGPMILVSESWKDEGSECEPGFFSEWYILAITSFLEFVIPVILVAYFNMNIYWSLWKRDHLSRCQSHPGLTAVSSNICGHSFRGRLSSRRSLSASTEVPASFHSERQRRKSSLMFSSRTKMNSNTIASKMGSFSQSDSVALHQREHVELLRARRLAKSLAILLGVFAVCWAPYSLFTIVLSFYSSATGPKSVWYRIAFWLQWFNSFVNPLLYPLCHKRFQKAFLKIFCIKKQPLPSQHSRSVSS

Regarding `Cc1cc(C)c2nc(-c3cnc(NCCCC4CCN(C)CC4)nc3C)[nH]c2c1` [Compound 2, [5-(4,6-Dimethyl-1H-benzoimidazol-2-yl)-4-methyl-pyrimidin-2-yl]-[3-(1-methyl-piperidin-4-yl)-propyl]-amine], on H4 receptor, the “H4 receptor modulator activity” value was “has H4 receptor modulator activity”.

As for `Cc1cc(C)c2nc(-c3cnc(NCCCC4CCN(C)CC4)nc3C)[nH]c2c1.O=C(O)C(O)C(O)C(=O)O` [Compound 2.1, 5-(4,6-dimethyl-1H-benzimidazol-2-yl)-4-methyl-N-[3-(1-methyl-4-piperidinyl)-propyl]-2-pyrimidinamine 2,3-dihydroxybutanedioate (1:0.5)], the aqueous solubility entry in data set [1] was “about 1.1 g/ml”. For the same compound, in data set [2], the hygroscopicity entry is recorded as “hygroscopic”, the “relative humidity above which it converts to Compound 3” value is “above 70 % relative humidity” and the “conversion to another solid form” value is on record as “forms the tetrahydrate Compound 3 in aqueous solution”.

With `Cc1cc(C)c2nc(-c3cnc(NCCCC4CCN(C)CC4)nc3C)[nH]c2c1` [Compound 2.2, 5-(4,6-dimethyl-1H-benzimidazol-2-yl)-4-methyl-N-[3-(1-methyl-4-piperidinyl)-propyl]-2-pyrimidinamine 2,3-dihydroxybutanedioate (1:0.5)], in data set [2], the hygroscopicity entry was “absorbs water readily”, the physical stability result is “physically stable only when stored in a tightly sealed vial at ambient condition” and the “conversion to another solid form” value is “converts to Compound 3 when exposed to the atmosphere”.

Regarding `Cc1cc(C)c2nc(-c3cnc(NCCCC4CCN(C)CC4)nc3C)[nH]c2c1.O=C(O)C(O)C(O)C(=O)O` [Compound 3, 5-(4,6-dimethyl-1H-benzimidazol-2-yl)-4-methyl-N-[3-(1-methyl-4-piperidinyl)-propyl]-2-pyrimidinamine 2,3-dihydroxybutanedioate tetrahydrate (1:0.5:4)], the aqueous solubility result in data set [1] was “about 4.1 mg/ml”. Moreover, in data set [2], the physical stability result is “stable under ambient conditions” and the “conversion to another solid form” value is given as “converts to Compound 2.2 upon dehydration by heating or in low relative humidity; also recorded: no conversion of Compound 3 to other forms was detected”.
